Data published in ChEMBL document CHEMBL5532686, “Azole-based compounds as potential anti-Acanthamoeba agents” (RSC Med Chem, 2024).
Values after ≈ are worked out from the molar mass of the structure shown. Active and inactive are the calls of the source. The calls are words filed in the database; no cut-off is given here.

Columns and labels:
HCT-116 [1] = test: Cytotoxicity against human HCT-116 cells at 100 ug/ml incubated for 24 hrs by LDH assay; assay type: toxicity, cell-based; settings: hct-116, 24 h, at 100 µg/mL
Acanthamoeba castellanii [2] = test: Anti-amoebic activity against Acanthamoeba castellanii genotype T4 (ATCC 50492) trophozoites assessed as reduction in encystation at 100 ug/ml incubated for 48 hrs by hemocytometer analysis; assay type: functional, organism-based; settings: dose 100.0 µg/ml
Acanthamoeba castellanii [3] = test: Anti-amoebic activity against Acanthamoeba castellanii genotype T4 (ATCC 50492) cysts assessed as reduction in excystation at 100 ug/ml incubated for 24 to 72 hrs by hemocytometer analysis; assay type: functional; settings: time 24-72 hrs
Acanthamoeba castellanii [4] = test: Anti-amoebic activity against Acanthamoeba castellanii genotype T4 (ATCC 50492) trophozoites assessed as reduction in amoebae viability incubated for 24 hrs by trypan blue exclusion test; assay type: functional
Acanthamoeba castellanii [5] = test: Anti-amoebic activity against Acanthamoeba castellanii genotype T4 (ATCC 50492) trophozoites infected in human HCT-116 cells assessed as protection against amoebae infection at 100 ug/ml amoebae pretreated with compound for 2 hrs followed by host cell infection and measured after 24 hrs by LDH assay; assay type: functional, organism-based; settings: dose 100.0 µg/ml, time 26.0 hrs
Acanthamoeba castellanii [6] = test: Anti-amoebic activity against Acanthamoeba castellanii genotype T4 (ATCC 50492) trophozoites assessed as reduction in amoebae viability at 100 ug/ml incubated for 24 hrs by trypan blue exclusion test; assay type: functional
Acanthamoeba castellanii [7] = test: Anti-amoebic activity against Acanthamoeba castellanii genotype T4 (ATCC 50492) cysts assessed as reduction in excystation incubated for 24 to 72 hrs by hemocytometer analysis; assay type: functional; settings: time 24-72 hrs
HCT-116 [8] = test: Cytotoxicity against human HCT-116 cells at 5X excystation MIC50 concentration incubated for 24 hrs by LDH assay; assay type: toxicity, cell-based; settings: hct-116, 24 h

MIC50 (Acanthamoeba castellanii [4])	MIC50 (Acanthamoeba castellanii [7])	SMILES	Activity (HCT-116 [1])	Activity (Acanthamoeba castellanii [2])	inhibition at 100 µg/mL (Acanthamoeba castellanii [3])	Activity (Acanthamoeba castellanii [5])	inhibition at 100 µg/mL (Acanthamoeba castellanii [6])	Activity (HCT-116 [8])
180 µg/mL (≈ 373 µM)	19.5 µg/mL (≈ 40.6 µM)	Cc1ccc(-n2c(SCc3cccc(C(F)(F)F)c3)nnc2-c2ccc(C(C)(C)C)cc2)cc1	35%	inactive	86%	inactive	27%	–
239 µg/mL (≈ 512 µM)	85.5 µg/mL (≈ 183 µM)	CC(C)(C)c1ccc(-c2nnc(SCc3cccc(C(F)(F)F)c3)n2-c2ccccc2)cc1	–	inactive	78%	inactive	17%	–
125 µg/mL (≈ 235 µM)	32 µg/mL (≈ 60.1 µM)	CC(C)c1ccc(-c2nnc(SCc3cccc(C(F)(F)F)c3)n2-c2cccc(Br)c2)cc1	–	inactive	77%	inactive	34%	17%
144 µg/mL (≈ 287 µM)	80.6 µg/mL (≈ 160 µM)	CC(C)(C)c1ccc(-c2nnc(SCc3cccc(C(F)(F)F)c3)n2-c2cccc(Cl)c2)cc1	35%	inactive	78%	inactive	25%	–
